Experimental data published in publication PMC6661766, “Antimicrobial, antioxidant and cytotoxic evaluation of diazenyl chalcones along with insights to mechanism of interaction by molecular docking studies” (BMC Chemistry, 2019).
Values after ≈ are worked out from the molar mass of the structure shown.

Key:
[1] = DPPH scavenging antioxidant assay
Experimental: The derivatives (C18–C27) were assessed for their antioxidant potential in the presence of the stable free radical DPPH using ascorbic acid as the standard compound [36, 37]. […] The total volume of 200 µl was used in each well for each concentration of the test and standard drug containing 0.004 µg DPPH. The assay was performed in triplicate at all concentrations of each sample and standard compound. DPPH solutions in methanol at the same concentration without test drugs were used as the control. Each concentration of the sample and standard has a different blank. To minimize evaporation, the plate was covered with the lid and wrapped in aluminium foil and kept in the dark place in order to protect the DPPH radical from degradation by light and left for 30 min. After 30 min of incubation, the plate was kept in ELISA reader to measure the absorbance values at 517 nm. The experiment was performed in triplicate. The antioxidant activity of each sample was then calculated as per cent inhibition of DPPH according to the following equation: %decolourationofDPPH=ControlAbs-SampleAbs×100/ControlAbs

[2] = test system: C. albicans; experiment: Antimicrobial serial tube dilution, MIC and MFC; assay type: cell-based, Candida albicans MTCC 227; conditions: Candida albicans; for MIC: 48 h, read-out: C. albicans MIC; for MFC: read-out: C. albicans MFC
Experimental: (§1) The synthesized diazenyl chalcones (C18 to C27) and controls (dyes A and E, and chalcone) were assessed for their antimicrobial activity by estimation of MIC and MBC/MFC values. […] The stock solutions of the test compounds and standard drugs having a concentration of 1000 µg ml^−1 were prepared by dissolving the used compounds in DMSO. The nutrient broth/Sabouraud dextrose broth was used for the serial dilution of the test compounds and referenced drugs for bacterial and fungal cultures, respectively. […] The size of the final inoculum in each test tube was taken as 5 × 10^5 CFU ml^−1. The incubation of the test and standard compounds of varying concentrations was done for 24 h at 37 ± 2 °C (bacterial culture) and for 48 h at 37 ± 2 °C (C. albicans) and for 7 d at 25 ± 2 °C (A. fumigatus). The diazenyl chalcones (C18–C27), were further evaluated for their bactericidal/fungicidal activity by estimation of MBC/MFC values. […] For proper mixing of culture media, the plates were shaken gently followed by incubation at the predefined temperature and time as stated earlier, followed by the visual inspection of the plates for signs of microbial growth.

[3] = test system: S. aureus; experiment: Antimicrobial serial tube dilution, MIC and MBC; assay type: cell-based, Staphylococcus aureus MTCC 2901; conditions: Staphylococcus aureus; for MIC: 24 h, read-out: S. aureus MIC; for MBC: read-out: S. aureus MBC
Experimental: as §1

[4] = test system: B. cereus; experiment: Antimicrobial serial tube dilution, MIC and MBC; assay type: cell-based, Bacillus cereus MTCC 1305; conditions: Bacillus cereus; for MIC: 24 h, read-out: B. cereus MIC; for MBC: read-out: B. cereus MBC
Experimental: as §1

[5] = test system: B. subtilis; experiment: Antimicrobial serial tube dilution, MIC and MBC; assay type: cell-based, Bacillus subtilis MTCC 2063; conditions: Bacillus subtilis; for MIC: 24 h, read-out: B. subtilis MIC; for MBC: read-out: B. subtilis MBC
Experimental: as §1

[6] = test system: HEK human embryonic kidney cells; experiment: MTT cytotoxicity assay, HEK; assay type: cell-based; conditions: 48 h
Experimental: (§2) The cell lines employed in the investigation were purchased from the National Centre for Cell Sciences (NCCS), Pune, India. The cell lines were cultured in DMEM fortified with 10% FBS, L-glutamine, sodium bicarbonate, and solution of antibiotics (streptomycin 100 μg ml^−1 + penicillin-100 U ml^−1). The culture of cell lines was stored under 5% CO2 incubation at 37 °C.
(§3) The compounds showing maximum activity (antimicrobial and antioxidant potential) were screened for cytotoxicity against A549 and HEK cell lines using MTT assay. Initially, 96-well microculture plate was seeded with 1 × 10^4 cells in 100 µl/well DMEM/MEM, supplemented with 10% FBS followed by incubation at a temperature of 37 °C for a period of 24 h under 5% CO2 atmosphere. After that, the test compounds and camptothecin were added to the cells to achieve a concentration of 10, 25, 50 and 100 µg. MTT reagent (10 µl) of concentration of 5 mg ml^−1 added to all the wells after the duration of 48 h. The plate was incubated further for 4 h followed by careful removal of supernatant from each well. To dissolve the formazan crystals, 100 µl of DMSO was added, and the ELISA reader was used to check the absorbance at 570 nm wavelength. In order to calculate the IC50 concentration, the following equation, i.e. A = Bx + C, was used. In this case, A = 50, while the values B and C values were obtained from the survival curve plot. This study was carried out in duplicate.

[7] = test system: A549 human lung cancer cell line; experiment: MTT cytotoxicity assay, A549; assay type: cell-based; conditions: Homo sapiens, A549; MTT, 48 h
Experimental: as §2, §3

[8] = test system: E. coli; experiment: Antimicrobial serial tube dilution, MIC and MBC; assay type: cell-based, Escherichia coli MTCC 1652; conditions: for MIC / MBC: Escherichia coli; for MIC: 24 h, read-out: E. coli MIC, 24 h at 37 ± 2 °C; for MBC: read-out: E. coli MBC
Experimental: as §1

[9] = test system: A. fumigatus; experiment: Antimicrobial serial tube dilution, MIC and MFC; assay type: cell-based, Aspergillus fumigatus MTCC 2584; conditions: Aspergillus fumigatus; for MIC: 168 h, read-out: A. fumigatus MIC; for MFC: read-out: A. fumigatus MFC
Experimental: as §1

[10] = test system: S. typhi; experiment: Antimicrobial serial tube dilution, MIC and MBC; assay type: cell-based, Salmonella typhi MTCC 3216; conditions: Salmonella enterica, TYPHI; for MIC: 24 h, read-out: S. typhi MIC; for MBC: read-out: S. typhi MBC
Experimental: as §1

SMILES | % inhibition of DPPH ([1]; 1.56 µg ml^−1) [%] | % inhibition of DPPH ([1]; 3.12 µg ml^−1) [%] | % inhibition of DPPH ([1]; 6.25 µg ml^−1) [%] | % inhibition of DPPH ([1]; 12.5 µg ml^−1) [%] | % inhibition of DPPH ([1]; 25 µg ml^−1) [%] | % inhibition of DPPH ([1]; 50 µg ml^−1) [%] | % inhibition of DPPH ([1]; 100 µg ml^−1) [%] | MIC [2] [µg/mL] | MFC [2] [µg/mL] | MIC [3] [µg/mL] | MBC [3] [µg/mL] | MIC [4] [µg/mL] | MBC [4] [µg/mL] | melting point [°C] | MIC [5] [µg/mL] | MBC [5] [µg/mL] | MIC [8] [µg/mL] | MBC [8] [µg/mL] | MIC [9] [µg/mL] | MFC [9] [µg/mL] | also measured
O=C(/C=C\c1ccc(Cl)cc1Cl)c1cccc(N=Nc2cccc(Cl)c2Cl)c1O [Compound C-19, (2Z)-3-(2,4-Dichlorophenyl)-1-(3-((2,3-dichlorophenyl)diazenyl)-2-hydroxyphenyl)prop-2-en-1-one] | 6.64 | 7.71 | 9.39 | 10.87 | 12.99 | 15.22 | 24.49 | 125 (≈ 268 µM) | 125 (≈ 268 µM) | 125 (≈ 268 µM) | 125 (≈ 268 µM) | 500 (≈ 1070 µM) | 500 (≈ 1070 µM) | 112 to 114 | 15.6 (≈ 33.5 µM) | 62.5 (≈ 134 µM) | 500 (≈ 1070 µM) | 500 (≈ 1070 µM) | 125 (≈ 268 µM) | 250 (≈ 536 µM) | IC50 DPPH [1]: > 100 µg/mL; IC50 [6]: 221 ± 3.23 µg/mL (≈ 474 µM); IC50 [7]: 140.2 ± 1.11 µg/mL (≈ 301 µM); MIC [10]: 125 µg/mL (≈ 268 µM); MBC [10]: 125 µg/mL (≈ 268 µM)
O=C(/C=C\c1ccccc1[N+](=O)[O-])c1cccc(N=Nc2cccc(Cl)c2Cl)c1O [Compound C-20, (2Z)-1-(3-((2,3-Dichlorophenyl)diazenyl)-2-hydroxyphenyl)-3-(2-nitrophenyl)prop-2-en-1-one] | 8.15 | 9.87 | 10.51 | 14.32 | 18.96 | 20.76 | 29.39 | 125 (≈ 283 µM) | 250 (≈ 565 µM) | 125 (≈ 283 µM) | 125 (≈ 283 µM) | 125 (≈ 283 µM) | 125 (≈ 283 µM) | 105 to 107 | 62.5 (≈ 141 µM) | 125 (≈ 283 µM) | 125 (≈ 283 µM) | 250 (≈ 565 µM) | 125 (≈ 283 µM) | 125 (≈ 283 µM) | IC50 DPPH [1]: > 100 µg/mL; MIC [10]: 125 µg/mL (≈ 283 µM); MBC [10]: 125 µg/mL (≈ 283 µM)
O=C(/C=C\c1cc(Br)ccc1O)c1ccc(N=Nc2c(O)cccc2O)cc1 [Compound C-21, (2Z)-3-(5-Bromo-2-hydroxyphenyl)-1-(4-((2,6-dihydroxyphenyl)diazenyl)phenyl)prop-2-en-1-one] | 8.71 | 12.99 | 20.98 | 25.71 | 30.75 | 35.78 | 39.56 | 62.5 (≈ 142 µM) | 125 (≈ 285 µM) | 125 (≈ 285 µM) | 125 (≈ 285 µM) | 62.5 (≈ 142 µM) | 62.5 (≈ 142 µM) | 155 to 157 | 31.2 (≈ 71.1 µM) | 62.5 (≈ 142 µM) | 7.81 to 15.6 (≈ 17.8 to 35.6 µM) | 31.2 (≈ 71.1 µM) | 125 (≈ 285 µM) | 125 (≈ 285 µM) | E. coli MIC ([8]; 24 h at 37 ± 2 °C): 15.62 µg/mL; MIC [10]: 31.2 µg/mL (≈ 71.1 µM); MBC [10]: 125 µg/mL (≈ 285 µM)
CC(=O)c1ccc(O)c(N=Nc2cccc(Cl)c2Cl)c1 [Dye A, 1-(3-((2,3-Dichlorophenyl)diazenyl)-4-hydroxyphenyl)ethanone] | 4.65 | 9.23 | 11.97 | 17.67 | 22.18 | 29.87 | 35.45 | 62.5 (≈ 202 µM) | 62.5 (≈ 202 µM) | 125 (≈ 404 µM) | 125 (≈ 404 µM) | 31.2 (≈ 101 µM) | 31.2 (≈ 101 µM) | 140 to 142 | 125 (≈ 404 µM) | 125 (≈ 404 µM) | 15.6 (≈ 50.5 µM) | 31.2 (≈ 101 µM) | 125 (≈ 404 µM) | 125 (≈ 404 µM) | IC50 DPPH [1]: > 100 µg/mL; MIC [10]: 62.5 µg/mL (≈ 202 µM); MBC [10]: 62.5 µg/mL (≈ 202 µM)
CC(=O)c1ccc(N=Nc2c(O)cccc2O)cc1 [Dye E, 1-(4-((2,6-Dihydroxyphenyl)diazenyl)phenyl)ethanone] | 7.89 | 12.68 | 19.80 | 26.18 | 34.89 | 47.56 | 56.78 | 125 (≈ 488 µM) | 125 (≈ 488 µM) | 31.2 (≈ 122 µM) | 62.5 (≈ 244 µM) | 62.5 (≈ 244 µM) | 62.5 (≈ 244 µM) | 240 to 242 | 62.5 (≈ 244 µM) | 125 (≈ 488 µM) | 31.2 (≈ 122 µM) | 31.2 (≈ 122 µM) | 125 (≈ 488 µM) | 125 (≈ 488 µM) | IC50 DPPH [1]: 69.40 µg/mL (≈ 271 µM); MIC [10]: 125 µg/mL (≈ 488 µM); MBC [10]: 125 µg/mL (≈ 488 µM)
